Measurements reported in patent US6846674B2, “Genetically modified fibroblast cells” (Deutsche Krebsforschungszentrum Stiftung des Offentlichen …, priority 2000, dated 2005).
“Also recorded” adds a separate entry of the source. Values belong to the molecule of their own block, whether it stands above or below them.

Columns and labels:
[1] = system: primary human keratinocytes; assay: 2D coculture of c-jun −/− c-JunER™ fibroblasts with primary human keratinocytes; type: cell-based; conditions: 100 nM every 12 hours, three days, immunofluorescence
Description: The corresponding controls remained untreated.

[2] = system: keratinocytes (epithelial formation and differentiation); assay: organotypical cultures with c-jun −/− fibroblasts, application of cytokines; type: cell-based, human; conditions: for phenotype obtained in organotypical cultures with c-jun −/−: FIG. 6
Description: Type 1 collagen was prepared from rat tail tendons and provided at a concentration of 4 mg/ml in 0.1% acetic acid as rdady-to-use solution (Smola et al., 1993). The collagen gels used consisted of 80% by volume of 4 mg/ml collagen in 0.1% acetic acid, 10% by volume Hank's salt solution (concentrated tenfold) and 10% by volume FCS with or without cells (2×10^5 cells/ml). The liquid collagen was admixed with Hank's solution on ice and neutralized with 5 M NaOH with stirring (trypsinated cells taken up in FCS can then be added to the collagen solution by stirring). The gel solution was poured into cell culture dishes or 2.5 ml each into filter inserts (3 μm pore size, Becton Dickinson, Heidelberg, Germany) and allowed to stay in an incubator to form a gel for 1 hour. Sterile glass rings having an internal diameter of 18 mm (1.5 mm wall thickness, 12 mm height) were placed onto the gels and slightly pressed thereon. Following 1 h in the incubator, the collagen gels were equilibrated in DMEM with 10% FCS. After 24 h, the medium was withdrawn from the glass rings and 1 ml keratinocyte suspension (9×10^5 cells/ml FAD) each were seeded into the glass ring interior. After 24 h of incubation, the medium was removed from the keratinocytes so as to expose the cells to air. This time was defined as day 0 of the organotypcial cultures. DMEM having 10% FCS was exchanged every other day, the medium level in this case bordering on the top gel rim. For histological or immunohistochemical processing, the cultures were fixed or frozen. In order to detect proliferating cells in a culture by immunohistochemical methods, the cultures BrdU (Sigma) were added to the medium at a concentration of 65 μM 12 h prior to fixing.
2D cocultures on plastic dishes or glass slides or in 3D form as organotypical cultures were incubated in corresponding standard medium for 24 h. Thereafter, medium enriched with cytokines was added and the cultures were incubated therewith depending on the experiment for several hours or days, the medium being changed with factor added every other day. Supplier of the growth factors and antibodies: KGF (BTS, St. Leon, Germany); anti-GM-CSF, polyclonal, neutralizing (R&D-Systems, Wiesbaden, Germany); GM-CSF (Boehringer Mannheim, Germany) and anti-KGF, monoclonal, neutralizing (R&D-Systems).
In the case of monolayer cultures of adherent cells, the medium was withdrawn from the cells and the cells were fixed on the glass slides in 80% methanol for 5 min. and 100% acetone for 3 min. The slides were then dried and stored at −40° C. For the production of paraffin preparations, organotypical cocultures or skin biopsies wee fixed in 3.5% formaldehyde (in PBS+) for at least 24 h, and initially embedded in agar and then in paraffin (Medim, Vogel company, GieβSen, Germany). The preparations were cut into 2 μm sections which were stained histologically with hematoxylin (15 min.) and eosin (5 min.). Following deparaffinization it was also possible to use the paraffin sections for immunohistochemical analyses. For the production of frozen preparations, skin samples or organotypical cocultures were frozen on cork platelets in embedding gel (“Tissue Teck”, O.C.T., Frankfurt, Germany) on liquid nitrogen. The preparations were stored at −80° C. 5-μm sections were prepared using a freezing microtome, placed onto silanized slides and used for immunohistochemical analyses.
Paraffin sections were deparaffinized in a descending alcohol series and rinsed in PBS. Thereafter, the epitopes on the tissue sections were made accessible by boiling the sections in “Tuf” solution for 5 min. (Advanced Biotechnologies, Hamburg, Germany) and 0.1% trypsin at 37° C. or microwave treatment in 0.1 M citrate buffer for 30 min. Freeze sections were fixed in 80% methanol for 5 min., then in acetone for 2 min. For detecting the incorporation of BrdU (proliferation assay), the sections were incubated in 1.5 M HCI for 10 min. to denature the DNA strands. […]

Molecule: CC/C(=C(\c1ccc(O)cc1)c1ccc(OCCN(C)C)cc1)c1ccccc1 [4-OH-tamoxifen]
enhanced expression of the differentiation marker K1/K10 [1]: can be eliminated again

transglutaminase, filaggrin and loricrin expression ([2]; c-jun −/− fibroblasts): expressed enhancedly
Molecule: GM-CSF: cytokine GM-CSF (Boehringer Mannheim, Germany)
phenotype obtained in organotypical cultures with c-jun −/− [2]: can partially be reversed
K1/K10 expression ([2]; c-jun −/− fibroblasts): expressed late
differentiation status of the epithelium ([2]; c-jun −/− fibroblasts): does not correspond to the normal condition
epithelial formation ([2]; c-jun −/− fibroblasts): eliminates the reduced epithelial formation; also recorded: effects an enhanced epithelial formation
loricrin expression (timing) ([2]; c-jun −/− fibroblasts): expressed prematurely

B1: KGF: cytokine / growth factor KGF (BTS, St. Leon, Germany) (protein, UniProt P21781 32-194, looked up)
Fibroblast growth factor 7: CNDMTPEQMATNVNCSSPERHTRSYDYMEGGDIRVRRLFCRTQWYLRIDKRGKVKGTQEMKNNYNIMEIRTVAVGIVAIKGVESEFYLAMNKEGKLYAKKECNEDCNFKELILENHYNTYASAKWTHNGGEMFVALNQKGIPVRGKKTKKEQKTAHFLPMAIT
phenotype obtained in organotypical cultures with c-jun −/− [2]: can partially be reversed
differentiation status of the epithelium ([2]; c-jun −/− fibroblasts): the full differentiation status is not restored
epithelial formation ([2]; c-jun −/− fibroblasts): eliminates the reduced epithelial formation
granular layer and expression of the differentiation markers filaggrin and loricrin ([2]; c-jun −/− fibroblasts, histology): lack
